The record followed here is article PMC10698032, “A monoacylglycerol lipase inhibitor showing therapeutic efficacy in mice without central side effects or dependence” (Nature Communications, 2023).

Common to all, as to assay: biochemical
Holding throughout (parameters): CEREP off-target panel, radioligand binding, inhibition of control specific binding
What all share (conditions): read-out: % Inhibition of Control Specific Binding, Mean

In assay [1] the target is T1, M1(h) (antagonist radioligand) (Homo sapiens, UniProt P11229).
T1 construct: gene CHRM1; antagonist radioligand
T1 sequence (P11229 whole entry): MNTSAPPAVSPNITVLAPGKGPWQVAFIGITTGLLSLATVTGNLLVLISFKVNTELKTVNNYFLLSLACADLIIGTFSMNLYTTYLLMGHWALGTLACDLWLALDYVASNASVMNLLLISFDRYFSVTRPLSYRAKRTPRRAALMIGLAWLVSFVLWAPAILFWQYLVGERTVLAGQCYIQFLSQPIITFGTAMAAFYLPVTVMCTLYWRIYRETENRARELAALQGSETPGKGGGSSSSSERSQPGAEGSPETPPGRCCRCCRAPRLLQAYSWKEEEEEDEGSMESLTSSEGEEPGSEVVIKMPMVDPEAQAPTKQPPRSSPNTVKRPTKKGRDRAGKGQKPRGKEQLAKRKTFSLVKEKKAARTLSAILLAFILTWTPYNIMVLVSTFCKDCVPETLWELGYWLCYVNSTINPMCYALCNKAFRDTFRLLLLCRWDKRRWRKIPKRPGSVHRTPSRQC

For assay [2], the target named is T2, N neuronal α4β2 (h) (agonist radioligand) (Homo sapiens, UniProt P17787+P43681).
T2 construct: gene CHRNB2; agonist radioligand

The target in assay [3] is T3, β2(h) (antagonist radioligand) (Homo sapiens, UniProt P07550).
T3 construct: gene ADRB2; antagonist radioligand

Assay [4] has as its target T4, CB1(h) (agonist radioligand) (Homo sapiens, UniProt P21554).
T4 construct: gene CNR1; agonist radioligand

For assay [5], the target named is T5, CB2(h) (agonist radioligand) (Homo sapiens, UniProt P34972).
T5 construct: gene CNR2; agonist radioligand
T5 sequence (P34972 whole entry): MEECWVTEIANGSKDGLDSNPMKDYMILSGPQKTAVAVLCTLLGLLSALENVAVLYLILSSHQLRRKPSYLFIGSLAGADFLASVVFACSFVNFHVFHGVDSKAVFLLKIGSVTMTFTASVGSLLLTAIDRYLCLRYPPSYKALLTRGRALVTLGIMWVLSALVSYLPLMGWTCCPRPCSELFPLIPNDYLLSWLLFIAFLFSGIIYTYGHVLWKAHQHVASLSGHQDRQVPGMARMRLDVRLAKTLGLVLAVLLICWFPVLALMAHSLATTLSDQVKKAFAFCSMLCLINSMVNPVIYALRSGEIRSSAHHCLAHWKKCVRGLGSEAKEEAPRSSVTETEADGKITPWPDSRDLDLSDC

Assay [6] has as its target T6, GR (h) (agonist radioligand) (Homo sapiens, UniProt P04150).
T6 construct: gene NR3C1; agonist radioligand

Assay [7] deals with T7, 5-HT2B(h) (agonist radioligand) (Homo sapiens, UniProt P41595).
T7 construct: gene HTR2B; agonist radioligand

The target in assay [8] is T8, 5-HT1B (h) (antagonist radioligand) (Homo sapiens, UniProt P28222).
T8 construct: gene HTR1B; antagonist radioligand

Assay [9] concerns the target T9, μ (MOP) (h) (agonist radioligand) (Homo sapiens, UniProt P35372).
T9 construct: gene OPRM1; agonist radioligand

Assay [10] deals with T10, V1a(h) (agonist radioligand) (Homo sapiens, UniProt P37288).
T10 construct: gene AVPR1A; agonist radioligand

Assay [11] addresses T11, M2 (h) (antagonist radioligand) (Homo sapiens, UniProt P08172).
T11 construct: gene CHRM2; antagonist radioligand

Assay [12] addresses T12, 5-HT1A(h) (agonist radioligand) (Homo sapiens, UniProt P08908).
T12 construct: gene HTR1A; agonist radioligand

The target of assay [13] is T13, AR(h) (agonist radioligand) (Homo sapiens, UniProt P10275).
T13 construct: agonist radioligand

In assay [14] the target is T14, H1(h) (antagonist radioligand) (Homo sapiens, UniProt P35367).
T14 construct: gene HRH1; antagonist radioligand

In assay [15] the target is T15, α2A(h) (antagonist radioligand) (Homo sapiens, UniProt P08913).
T15 construct: gene ADRA2A; antagonist radioligand

In assay [16] the target is T16, H2(h) (antagonist radioligand) (Homo sapiens, UniProt P25021).
T16 construct: gene HRH2; antagonist radioligand
T16 sequence (P25021 whole entry): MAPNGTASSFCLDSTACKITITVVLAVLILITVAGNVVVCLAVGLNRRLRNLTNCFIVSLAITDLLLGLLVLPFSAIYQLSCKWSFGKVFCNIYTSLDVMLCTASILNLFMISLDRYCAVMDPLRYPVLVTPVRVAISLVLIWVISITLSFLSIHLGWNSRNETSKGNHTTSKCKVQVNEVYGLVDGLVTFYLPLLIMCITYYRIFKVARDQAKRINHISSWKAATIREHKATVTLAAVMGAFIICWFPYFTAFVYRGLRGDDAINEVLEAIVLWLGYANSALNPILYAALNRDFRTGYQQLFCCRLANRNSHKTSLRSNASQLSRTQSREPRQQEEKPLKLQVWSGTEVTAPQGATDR

Assay [17] addresses T17, β1(h) (agonist radioligand) (Homo sapiens, UniProt P08588).
T17 construct: gene ADRB1; agonist radioligand

Assay [18] concerns the target T18, M3(h) (antagonist radioligand) (Homo sapiens, UniProt P20309).
T18 construct: gene CHRM3; antagonist radioligand

The target in assay [19] is T19, CCK1 (CCKA) (h) (agonist radioligand) (Homo sapiens, UniProt P32238).
T19 construct: gene CCKAR; agonist radioligand

The structures appear in SMILES notation.

T4 sequence (P21554 whole entry): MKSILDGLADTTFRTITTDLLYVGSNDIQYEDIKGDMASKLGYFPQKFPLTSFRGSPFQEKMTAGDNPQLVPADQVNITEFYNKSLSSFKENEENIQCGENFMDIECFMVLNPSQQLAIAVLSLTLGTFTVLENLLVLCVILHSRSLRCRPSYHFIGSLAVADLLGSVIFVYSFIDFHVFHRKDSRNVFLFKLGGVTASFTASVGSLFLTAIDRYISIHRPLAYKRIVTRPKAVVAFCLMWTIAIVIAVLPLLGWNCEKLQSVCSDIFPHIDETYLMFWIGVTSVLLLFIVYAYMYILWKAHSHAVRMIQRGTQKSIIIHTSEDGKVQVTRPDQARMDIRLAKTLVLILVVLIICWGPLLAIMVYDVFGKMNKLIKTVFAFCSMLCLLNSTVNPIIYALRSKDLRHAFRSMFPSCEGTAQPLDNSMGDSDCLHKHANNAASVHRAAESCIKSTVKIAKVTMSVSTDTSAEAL
T18 sequence (P20309 whole entry): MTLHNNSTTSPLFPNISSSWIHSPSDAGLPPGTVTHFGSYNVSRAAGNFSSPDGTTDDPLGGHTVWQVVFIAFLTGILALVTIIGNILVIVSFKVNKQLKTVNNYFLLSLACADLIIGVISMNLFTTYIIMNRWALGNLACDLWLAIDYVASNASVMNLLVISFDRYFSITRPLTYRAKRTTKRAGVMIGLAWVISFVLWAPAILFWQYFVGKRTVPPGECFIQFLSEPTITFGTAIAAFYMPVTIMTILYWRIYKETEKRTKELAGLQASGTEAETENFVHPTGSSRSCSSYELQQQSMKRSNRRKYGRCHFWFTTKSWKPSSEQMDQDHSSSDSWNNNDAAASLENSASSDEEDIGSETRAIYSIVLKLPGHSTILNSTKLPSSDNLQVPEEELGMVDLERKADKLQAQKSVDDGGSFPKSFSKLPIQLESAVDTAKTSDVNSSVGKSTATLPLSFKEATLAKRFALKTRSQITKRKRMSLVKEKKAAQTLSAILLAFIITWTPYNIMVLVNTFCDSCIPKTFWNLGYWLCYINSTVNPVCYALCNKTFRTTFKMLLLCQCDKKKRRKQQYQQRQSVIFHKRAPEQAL
T6 sequence (P04150 whole entry): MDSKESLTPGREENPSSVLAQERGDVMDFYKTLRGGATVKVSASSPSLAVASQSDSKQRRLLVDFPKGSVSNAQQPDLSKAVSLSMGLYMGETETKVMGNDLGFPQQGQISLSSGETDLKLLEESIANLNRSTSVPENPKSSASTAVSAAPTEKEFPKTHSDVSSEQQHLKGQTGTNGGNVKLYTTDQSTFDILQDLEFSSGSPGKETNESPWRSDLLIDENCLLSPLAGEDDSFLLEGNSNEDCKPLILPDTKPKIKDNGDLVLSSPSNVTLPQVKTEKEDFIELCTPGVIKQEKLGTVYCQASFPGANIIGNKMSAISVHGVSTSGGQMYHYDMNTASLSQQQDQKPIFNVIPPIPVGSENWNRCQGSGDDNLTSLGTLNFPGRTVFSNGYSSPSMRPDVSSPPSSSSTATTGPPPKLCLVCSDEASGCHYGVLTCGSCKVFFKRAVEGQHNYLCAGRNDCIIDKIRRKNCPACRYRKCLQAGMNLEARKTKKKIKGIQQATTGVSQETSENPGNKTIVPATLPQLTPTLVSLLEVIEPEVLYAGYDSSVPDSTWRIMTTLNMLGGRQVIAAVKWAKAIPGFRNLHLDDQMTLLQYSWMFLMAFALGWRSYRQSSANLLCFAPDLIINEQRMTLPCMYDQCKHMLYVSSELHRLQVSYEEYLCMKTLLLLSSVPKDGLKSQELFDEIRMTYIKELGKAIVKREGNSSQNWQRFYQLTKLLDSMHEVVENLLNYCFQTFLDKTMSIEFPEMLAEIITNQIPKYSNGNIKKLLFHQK
T17 sequence (P08588 whole entry): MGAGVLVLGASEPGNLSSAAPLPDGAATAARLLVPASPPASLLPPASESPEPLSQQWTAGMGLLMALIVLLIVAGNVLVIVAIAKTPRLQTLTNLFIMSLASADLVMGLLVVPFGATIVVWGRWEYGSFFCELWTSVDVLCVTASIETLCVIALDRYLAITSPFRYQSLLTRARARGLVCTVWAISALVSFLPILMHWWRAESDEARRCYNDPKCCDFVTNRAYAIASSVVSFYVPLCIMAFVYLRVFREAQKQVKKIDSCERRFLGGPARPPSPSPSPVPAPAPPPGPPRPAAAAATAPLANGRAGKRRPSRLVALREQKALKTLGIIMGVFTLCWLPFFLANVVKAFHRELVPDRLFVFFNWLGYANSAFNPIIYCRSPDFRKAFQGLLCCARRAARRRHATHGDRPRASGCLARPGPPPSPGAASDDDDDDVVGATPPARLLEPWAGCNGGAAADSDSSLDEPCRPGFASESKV
T11 sequence (P08172 whole entry): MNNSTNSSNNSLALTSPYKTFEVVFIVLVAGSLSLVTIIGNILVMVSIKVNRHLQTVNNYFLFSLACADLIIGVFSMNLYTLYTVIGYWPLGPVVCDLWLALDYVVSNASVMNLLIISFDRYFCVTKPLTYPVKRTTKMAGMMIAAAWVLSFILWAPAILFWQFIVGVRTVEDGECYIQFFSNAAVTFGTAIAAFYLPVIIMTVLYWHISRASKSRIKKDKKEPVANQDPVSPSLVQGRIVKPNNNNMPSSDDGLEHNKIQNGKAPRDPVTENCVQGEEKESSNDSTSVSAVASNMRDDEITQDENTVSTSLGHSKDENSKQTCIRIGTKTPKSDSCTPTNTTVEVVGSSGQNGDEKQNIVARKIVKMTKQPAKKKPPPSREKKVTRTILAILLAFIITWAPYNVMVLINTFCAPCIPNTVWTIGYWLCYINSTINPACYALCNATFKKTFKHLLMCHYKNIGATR
T9 sequence (P35372 whole entry): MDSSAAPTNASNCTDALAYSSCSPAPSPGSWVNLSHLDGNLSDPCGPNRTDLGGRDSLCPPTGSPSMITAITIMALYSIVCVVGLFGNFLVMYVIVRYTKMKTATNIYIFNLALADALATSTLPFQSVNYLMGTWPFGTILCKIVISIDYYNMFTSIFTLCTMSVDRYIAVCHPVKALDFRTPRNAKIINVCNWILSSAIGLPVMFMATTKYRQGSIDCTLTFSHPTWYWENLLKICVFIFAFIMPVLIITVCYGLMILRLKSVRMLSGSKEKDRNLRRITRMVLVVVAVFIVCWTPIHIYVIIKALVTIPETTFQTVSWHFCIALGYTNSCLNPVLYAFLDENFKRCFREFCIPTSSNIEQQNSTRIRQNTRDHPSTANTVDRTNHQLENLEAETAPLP
T12 sequence (P08908 whole entry): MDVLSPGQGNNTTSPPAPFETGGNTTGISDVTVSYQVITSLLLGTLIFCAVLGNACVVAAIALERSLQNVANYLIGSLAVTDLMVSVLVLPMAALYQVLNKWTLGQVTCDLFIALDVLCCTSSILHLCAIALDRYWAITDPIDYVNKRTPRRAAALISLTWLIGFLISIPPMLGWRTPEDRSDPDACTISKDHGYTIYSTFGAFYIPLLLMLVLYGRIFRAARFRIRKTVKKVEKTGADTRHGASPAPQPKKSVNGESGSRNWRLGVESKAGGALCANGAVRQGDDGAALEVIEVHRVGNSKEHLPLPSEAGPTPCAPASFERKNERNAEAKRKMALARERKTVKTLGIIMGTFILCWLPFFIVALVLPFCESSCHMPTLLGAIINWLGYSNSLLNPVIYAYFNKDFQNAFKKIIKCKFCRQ

Turning to `CCC(F)(F)C(=O)C[S+]([O-])c1ccc(C(=O)N2CCN(c3cccc(Cl)c3)[C@@H](C)[C@@H]2C)cc1Cl` (mixture of isomers) [compound 3, LEI-515], the inhibition (usually the drop in the measured response relative to a control, in per cent) at 10 µM in assay [1] is -29.5%; in [2] it was -10.5%; in [3], 26.8%; in assay [4], 22.3%; in assay [5], -11.9%; in assay [6], 30.2%. The inhibition at 10 µM was 27.6% in assay [7]; 24.2% in [8]; 20.4% in assay [9]; 9.9% in [10]; -4.2% in assay [11]; 10.6% in [12]. The inhibition at 10 µM is -7% in assay [13]; 8.1% in assay [14]; 18.3% in [15]; -26% in assay [16]; 6.6% in assay [17]; -19.9% in assay [18]. In addition, the inhibition at 10 µM in assay [19] was found to be 19.5%.
